Data: patent US12331040B2 (Karyopharm Therapeutics Inc., priority 2013, dated 2025)
Where two headings read alike, the source gives them in different places.

Assays:
Assay in all cases: MTT cell proliferation assay
Assay type in all cases: cell-based
[1] = system: 3T3 cells; settings: Mus musculus, NIH3T3, approximately 64-72 hours incubation
Description: (§1) The MTT cell proliferation assay was used to study the cytotoxic properties of the compounds. The assay was performed according to the method described by Roche Molecular Biochemicals, with minor modifications. The assay is based on the cleavage of the tetrazolium salt, MTT, in the presence of an electron-coupling reagent. The water-insoluble formazan salt produced must be solubilized in an additional step. Cells grown in a 96-well tissue culture plate were incubated with the MTT solution for approximately 4 hours. After this incubation period, a water-insoluble formazan dye formed. After solubilization, the formazan dye was quantitated using a scanning multi-well spectrophotometer (ELISA reader). […] The cells were seeded at 5,000-10,000 cells in each well of 96-well plate in 100 μL of fresh culture medium and were allowed to attach overnight. The stock solutions of the compounds were diluted in 100 μL cell culture medium to obtain eight concentrations of each test compound, ranging from 1 nM to 30 μM. […] All optical densities were measured at 490 nm using a Vmax Kinetic Microplate Reader (Molecular Devices). In most cases, the assay was performed in duplicate and the results were presented as a mean percent inhibition to the negative control±SE. The following formula was used to calculate the percent of inhibition: Inhibition (%)=(1−(ODo/OD))×100.
(§2) The compounds were tested against MS751, Z138 and 3T3 cells. The MS751 cell line is derived from a metastasis to lymph node of human cervix from a patient diagnosed with squamous cell carcinoma of the cervix. The Z138 cell line is a mature B-cell acute lymphoblastic leukemia cell line derived from a patient with chronic lymphocytic leukemia. 3T3 cells are standard fibroblast cells; they were originally isolated from Swiss mouse embryo tissue.

[2] = system: MS751 cells; settings: Homo sapiens, MS751, MS751 cells, approximately 64-72 hours incubation
Description: as §1, §2

[3] = system: Z138 cells; settings: Homo sapiens, Z-138, Z138 cells, approximately 64-72 hours incubation
Description: as §1, §2

[4] = read-out: MTT Assay IC50 MS-751
[5] = read-out: MTT Assay IC50, MS-751
[6] = read-out: MTT Assay IC50, Z-138

SMILES | IC50 ([1]; read-out: MTT Assay IC50 3T3) [nM] | IC50 [2, 4] [nM] | IC50 ([3]; read-out: MTT Assay IC50 Z-138) [nM] | IC50 ([1]; read-out: MTT Assay IC50, 3T3) [nM] | IC50 [2, 5] [nM] | IC50 [3, 6] [nM]
COc1cc(-c2ccc(C(=O)N3CCOCC3)cc2)cc2cc(CNC(=O)/C=C/c3ccc(N)nc3)oc12 [Compound 592, (E)-3-(6-aminopyridin-3-yl)-N-((7-methoxy-5-(4-(morpholine-4-carbonyl)phenyl)benzofuran-2-yl)methyl)acrylamide] | > 10000 | 100 to 5000 | < 100 |  |  | 
CC1(F)CCN(C(=O)c2ccc(-c3cc(C(F)(F)F)c4oc(CNC(=O)/C=C\c5ccc(N)nc5)cc4c3)nc2)C1 (single isomer, unassigned) [Compound 657, (Z)-3-(6-aminopyridin-3-yl)-N-((5-(5-(3-fluoro-3-methylpyrrolidine-1-carbonyl)pyridin-2-yl)-7-(trifluoromethyl)benzofuran-2-yl)methyl)acrylamide] |  |  |  | > 10000 | 100 to 5000 | 100 to 5000
Nc1ccc(/C=C/C(=O)NCc2cc3cc(-c4ccc(C(=O)N5CCNCC5)cc4)cc(C(F)(F)F)c3o2)cn1 [Compound 564, (E)-3-(6-aminopyridin-3-yl)-N-((5-(4-(piperazine-1-carbonyl)phenyl)-7-(trifluoromethyl)benzofuran-2-yl)methyl)acrylamide] | > 10000 | < 100 | < 100 |  |  | 
Nc1ccc(/C=C/C(=O)NCc2cc3cc(-c4ccc(C(=O)N5CC6CC6C5)cn4)cc(C(F)(F)F)c3o2)cn1 (stereo not drawn) [Compound 623, (E)-N-((5-(5-(3-azabicyclo[3.1.0]hexane-3-carbonyl)pyridin-2-yl)-7-(trifluoromethyl)benzofuran-2-yl)methyl)-3-(6-aminopyridin-3-yl)acrylamide] | > 10000 | 100 to 5000 | 100 to 5000 |  |  | 
Nc1ccc(/C=C/C(=O)NCc2cc3cc(-c4ccc(C(=O)N5CCC(F)(F)CC5)cc4)cc(Cl)c3o2)cn1 [Compound 596, (E)-3-(6-aminopyridin-3-yl)-N-((7-chloro-5-(4-(4,4-difluoropiperidine-1-carbonyl)phenyl)benzofuran-2-yl)methyl)acrylamide] | > 10000 | 100 to 5000 | 100 to 5000 |  |  | 
O=C(/C=C/c1ccncc1)NCc1cc2cc(-c3ccc(C(=O)N4CCOCC4)cc3)cc(Cl)c2o1 [Compound 535, (E)-N-((7-Chloro-5-(4-(morpholine-4-carbonyl)phenyl)benzofuran-2-yl)methyl)-3-(pyridin-4-yl)acrylamide] | > 10000 | > 10000 | > 10000 |  |  | 
Nc1ccc(/C=C/C(=O)NCc2cc3cc(-c4ccc(C(=O)N5CCC(F)(F)CC5)cc4F)cc(-c4ccc(F)cc4F)c3o2)cn1 [Compound 753, (E)-3-(6-aminopyridin-3-yl)-N-((7-(2,4-difluorophenyl)-5-(4-(4,4-difluoropiperidine-1-carbonyl)-2-fluorophenyl)benzofuran-2-yl)methyl)acrylamide] |  |  |  | 100 to 5000 | < 100 | < 100
Nc1ccc(/C=C/C(=O)NCc2cc3cc(-c4ccc(C(=O)N5CCC(F)(F)CC5)cc4)cc(-c4ccc(F)nc4F)c3o2)cn1 [Compound 754, (E)-3-(6-aminopyridin-3-yl)-N-((5-(4-(4,4-difluoropiperidine-1-carbonyl)phenyl)-7-(2,6-difluoropyridin-3-yl)benzofuran-2-yl)methyl)acrylamide] |  |  |  | 100 to 5000 | < 100 | < 100
Nc1ccc(/C=C/C(=O)NCc2cc3cc(-c4ccc(C(=O)N5CCC[C@@H]5C(F)(F)F)cn4)cc(C(F)(F)F)c3o2)cn1 [Compound 624, (R,E)-3-(6-aminopyridin-3-yl)-N-((7-(trifluoromethyl)-5-(5-(2-(trifluoromethyl)pyrrolidine-1-carbonyl)pyridin-2-yl)benzofuran-2-yl)methyl)acrylamide] | > 10000 | 100 to 5000 | 100 to 5000 |  |  | 
Nc1ccc(/C=C/C(=O)NCc2cc3cc(-c4ccc(C(=O)N5CCC(O)(C(F)(F)F)C5)cc4)cc(C(F)(F)F)c3o2)cn1 (stereo not drawn) [Compound 606, (E)-3-(6-aminopyridin-3-yl)-N-((5-(4-(3-hydroxy-3-(trifluoromethyl)pyrrolidine-1-carbonyl)phenyl)-7-(trifluoromethyl)benzofuran-2-yl)methyl)acrylamide] | > 10000 | 100 to 5000 | 100 to 5000 |  |  | 
Nc1ccc(/C=C/C(=O)NCc2cc3cc(-c4ccc(C(=O)N5CCOCC5)nn4)cc(Cl)c3o2)cn1 [Compound 552, (E)-3-(6-aminopyridin-3-yl)-N-((7-chloro-5-(6-(morpholine-4-carbonyl)pyridazin-3-yl)benzofuran-2-yl)methyl)acrylamide] | > 10000 | 100 to 5000 | 100 to 5000 |  |  | 
CC1(F)CCN(C(=O)c2ccc(-c3cc(C(F)(F)F)c4oc(CNC(=O)/C=C/c5ccc(N)nc5)cc4c3)nc2)C1 (stereo not drawn) [Compound 617, (E)-3-(6-aminopyridin-3-yl)-N-((5-(5-(3-fluoro-3-methylpyrrolidine-1-carbonyl)pyridin-2-yl)-7-(trifluoromethyl)benzofuran-2-yl)methyl)acrylamide] | > 10000 | 100 to 5000 | < 100 |  |  | 
Nc1ccc(/C=C/C(=O)NCc2cc3cc(-c4ccc(C(=O)N5CCOCC5)c(F)c4F)cc(Cl)c3o2)cn1 [Compound 548, (E)-3-(6-aminopyridin-3-yl)-N-((7-chloro-5-(2,3-difluoro-4-(morpholine-4-carbonyl)phenyl)benzofuran-2-yl)methyl)acrylamide] | > 10000 | 100 to 5000 | 100 to 5000 |  |  | 
Nc1ccc(/C=C/C(=O)NCc2cc3cc(-c4ccc(Oc5ccc(F)cc5)cn4)cc(-c4ccc(F)cc4)c3o2)cn1 [Compound 745, (E)-3-(6-aminopyridin-3-yl)-N-((5-(5-(4-fluorophenoxy)pyridin-2-yl)-7-(4-fluorophenyl)benzofuran-2-yl)methyl)acrylamide] |  |  |  | > 10000 | 100 to 5000 | 100 to 5000
Nc1ccc(/C=C/C(=O)NCc2cc3cc(-c4ccc(C(=O)N5CCC(F)(F)CC5)cc4F)cc(-c4ccc(F)c(Cl)c4)c3o2)cn1 [Compound 757, (E)-3-(6-aminopyridin-3-yl)-N-((7-(3-chloro-4-fluorophenyl)-5-(4-(4,4-difluoropiperidine-1-carbonyl)-2-fluorophenyl)benzofuran-2-yl)methyl)acrylamide] |  |  |  | > 10000 | < 100 | < 100
O=C(/C=C/c1cccnc1)NCc1cc2cc(-c3ccc(C(=O)N4CCC(F)(F)CC4)cc3)cc(-c3ccncc3)c2o1 [Compound 723, (E)-N-((5-(4-(4,4-difluoropiperidine-1-carbonyl)phenyl)-7-(pyridin-4-yl)benzofuran-2-yl)methyl)-3-(pyridin-3-yl)acrylamide] |  |  |  | < 100 | < 100 | < 100
CS(=O)(=O)c1ccc(-c2cc(-c3ccc(F)cc3)c3oc(CNC(=O)/C=C/c4ccc(N)nc4)cc3c2)cc1 [Compound 693, (E)-3-(6-aminopyridin-3-yl)-N-((7-(4-fluorophenyl)-5-(4-(methylsulfonyl)phenyl)benzofuran-2-yl)methyl)acrylamide] |  |  |  | 100 to 5000 | < 100 | < 100
COc1cc(-c2ncc(C(=O)N3CCOCC3)cn2)cc2cc(CNC(=O)/C=C/c3ccc(N)nc3)oc12 [Compound 638, (E)-3-(6-aminopyridin-3-yl)-N-((7-methoxy-5-(5-(morpholine-4-carbonyl)pyrimidin-2-yl)benzofuran-2-yl)methyl)acrylamide] | > 10000 | 100 to 5000 | < 100 |  |  | 
CCS(=O)(=O)c1ccc(-c2cc(-c3ccc(F)cc3)c3oc(CNC(=O)/C=C/c4ccc(N)nc4)cc3c2)cc1 [Compound 709, (E)-3-(6-aminopyridin-3-yl)-N-((5-(4-(ethylsulfonyl)phenyl)-7-(4-fluorophenyl)benzofuran-2-yl)methyl)acrylamide] |  |  |  | > 10000 | < 100 | < 100
COc1ccc(Cl)cc1-c1cc(-c2ccc(C(=O)N3CCC(F)(F)CC3)cc2)cc2cc(CNC(=O)/C=C/c3ccc(N)nc3)oc12 [Compound 730, (E)-3-(6-aminopyridin-3-yl)-N-((7-(5-chloro-2-methoxyphenyl)-5-(4-(4,4-difluoropiperidine-1-carbonyl)phenyl)benzofuran-2-yl)methyl)acrylamide] |  |  |  | < 100 | < 100 | < 100
Nc1ccc(/C=C/C(=O)NCc2cc3cc(-c4ccc(C(=O)N5CCC(F)(F)CC5)cn4)cc(-c4cccnc4)c3o2)cn1 [Compound 669, (E)-3-(6-aminopyridin-3-yl)-N-((5-(5-(4,4-difluoropiperidine-1-carbonyl)pyridin-2-yl)-7-(pyridin-3-yl)benzofuran-2-yl)methyl)acrylamide] |  |  |  | 100 to 5000 | < 100 | < 100
